From patent EP1935984A1 (priority 2006, dated 2008)

How the values were obtained:
[1] = system: Bacillus subtilis wild-type strain PB2; experiment: microbe, parasite or virus in culture
Method: (§1) To get a better understanding of the global response of Bacillus subtilis enduring sorbic acid stress, DNA microarray analysis was performed. We studied changes in gene expression after 10, 20, 30, 40 and 50 min of exposure to potassium sorbate in comparison to an untreated control. […] Changes in gene expression were studied using spotted oligo-arrays. The microarray consisted of 4100 gene specific 65-mer oligonucleotides, representing 4,100 of the 4,106 possible ORFs in B. subtilis (as reported for the B. subtilis genome at http://genolist.pasteur.fr/SubtiList/), spotted in duplo onto glass slides. Total RNA, isolated from the sorbate stressed and control cultures of each time-point, was labelled with the fluorescent dyes Cy5-dUTP and Cy3-dUTP respectively and hybridized onto the same slide. Biologically independent experiments were performed in duplo. […] Since the variation in differential expression measurements depends on the intensity (smaller variation at higher- and larger variation at lower fluorescence intensity levels), we applied an intensity-dependent method to identify differentially expressed genes (Yang et al., (2002)a, Genome Biol., 3: 0062). […] According to the KEGG (Kyoto Encyclopedia of Genes and Genomes, Kaneshisa M, et al (2006), Nucl. Acid Res., 34:354-357) database, this enzyme may also be involved in the degradation and biosynthesis of various metabolites, like arginine, proline, tyrosine, tryptophan and pyrine. […] YhcA is a possible multi-drug efflux pump and comprises of thirteen putative trans-membrane domains. YhcA is both a member of the drug resistance transporter EmrB/QacA subfamily and the major facilitator superfamily. […] We followed the growth by measuring the increase in OD600 and calculated growth inhibition percentages (Table 1). […] Table 1. Susceptibility of a selected mutant strain to sorbic acid stress.
(§2) All Bacillus subtilis strains used in this study are derivatives of the laboratory wild-type strain PB2 (kindly provided by C.W. Price) and are listed in Table 4. Mutant strains ATB002 (ureC), ATB007 (sigL) and ATB008 (sigM) were obtained by transformation of strain PB2 with chromosomal DNA of strains SF168U (Cruz-Ramos H., et al., (1997) J. Bacteriol., 179:3371-3373), QB5505 (Debarbouille M., et al., (1991), Proc. Natl. Acad. Sci., 181: 2059-2066) and AM1447 (Thackray PD and Moir A, (2003), J. Bacteriol., 185: 3491-3498), respectively. To obtain mutant strains ATB001 (fabHB), ATB003 (ycsF), ATB004 (yhcA), ATB005 (yhcB) and ATB006 (yxkJ), the wild-type strain PB2 was transformed with chromosomal DNA of strains YHFBd, YCSFd, YHCAd, YHCBd and YXKJd, respectively, which were all received from the Japanese Consortium for Functional Analysis of the B. subtilis Genome (JAFAN, http://bacillus.genome.ad.jp/). Transformants were selected on LB (Luria-Bertani) agar plates containing appropriate antibiotics, after overnight incubation at 37°C. Depending on the strain, the used antibiotics were chloramphenicol (6 µg/ml), erythromycin (0.5 µg/ml), spectinomycin (100 µg/ml) or kanamycin (10 µg/ml). Isolation of chromosomal DNA was performed according to Ward JB. (Ward JB et al, (1973), J. Bacteriol., 116: 719-726) and transformations were carried out as described by Kunst et al (Kunst F. et al, (1995) J. Bacteriol., 177: 2403-2407).

[2] = system: mutant strain ATB004 (yhcA); experiment: microbe, parasite or virus in culture; conditions: Bacillus subtilis, pH 6.4, read-out: GI% (growth inhibition)
Method: as §1, §2

wild type B.subtilis PB2 = conditions: concentrations of 30mM and 40mM KSorbate
Method: On MB#1 first a test screen was performed on 15mM KSorbate.
The mutants and the wild type PB2 as a control were grown over night in liquid LB-media, pH6.4, 80mM MOPS and 100µg/ml spectinomycin (for the mutants only) at 37°C and 250rpm. The cultures were diluted to an OD600 of 0.2-0.25, grown to OD600=0.5 and again diluted to an OD600=0.020-0.025. At log-phase (OD600=0.2) a 200µl sample was taken, 10°fold to 10^-6fold diluted and ~5µl plated on the same LB-plates, pH6.4, 80mM MOPS containing 0mM, 15mM, 30mM and 40mM KSorbate. After 24h of incubation at 37°C pictures of the plates were taken.

[3] = pH 6.4, read-out: GI% (growth inhibition)

Question: With `C/C=C/C=C/C(=O)[O-].[K+]` [Potassium sorbate, potassium sorbate] as the compound, how does the inhibition at 3000 µM [1, 3] read?
Answer: 26.1%

Question: What about the inhibition at 6000 µM [1, 3] of the same compound?
Answer: 40.7%

Question: And the inhibition at 15000 µM [1, 3]?
Answer: 63.6%

Question: What about the inhibition at 30000 µM [1, 3] of the same compound?
Answer: 73.2%

Question: And the inhibition of growth at 3000 µM ([1]; read-out: reduction in the growth rate)?
Answer: 26%

Question: What about the inhibition at 3000 µM [2] of the same compound?
Answer: 45.1%

Question: What about the inhibition at 6000 µM [2] of the same compound?
Answer: 50%

Question: And the inhibition at 15000 µM [2]?
Answer: 72%

Question: What about the inhibition at 30000 µM [2] of the same compound?
Answer: 79.3%

Question: And the “growth of the wild type on sorbate plates” value (wild type B.subtilis PB2)?
Answer: reduce the growth of the wild type
